Data on 9 compounds can be found in US7163939.

For the data set the following is noted: rcm bond.

Like-named read-outs stand apart in the source and are kept apart here.

Under “from C=CCCOc1nc(NC(=O)Nc2cc(C)cc(Br)c2OCC=C)cnc1C#N, 15-membered ring, Grubbs II (10 mol%), CH2Cl2, 2.11 mM, 40.0 °C, 16.0 h”, `Cc1cc(Cl)c2c(c1)NC(=O)Nc1cnc(C#N)c(n1)OCCC=CCO2` yielded a ring closure, isolated yield of 72%.

With “2-oxo-18-[3-(tetrahydro-2H-pyran-2-yloxy)propyl]-2,3,11,14-tetrahydro-1H,10H-8,4-epiazeno-9,15,1,3,6-benzodioxatriazacycloheptadecine-7-carbonitrile”, where the note is “15-membered ring”, the ring closure, isolated yield was 37%.

`CC1C=CCCOc2nc(cnc2C#N)NC(=O)Nc2cc(Cl)ccc2O1` (stereo not drawn) returned a ring closure, isolated yield (from C=CCCOc1nc(NC(=O)Nc2cc(Cl)ccc2OC(C)C=C)cnc1C#N, 15-membered ring, Grubbs II (10 mol%), CH2Cl2, 1.97 mM, 25.0 °C, 36.0 h) of 63%.

In turn, `N#Cc1ncc2nc1OCCC=CCOc1ncc(Cl)cc1NC(=O)N2` yielded a ring closure, isolated yield (from C=CCCOc1nc(NC(=O)Nc2cc(Cl)cnc2OCC=C)cnc1C#N, 15-membered ring, Grubbs II (15 mol%), CH2Cl2, 2.75 mM, 40.0 °C, 16.0 h) of 36%.

`N#Cc1ncc2nc1OCC=CCOc1ccc(Cl)cc1NC(=O)N2` returned a ring closure, isolated yield (from C=CCOc1ccc(Cl)cc1NC(=O)Nc1cnc(C#N)c(OCC=C)n1, 14-membered ring, Grubbs II (15 mol%), CH2Cl2, 1.8 mM, 40.0 °C, 16.0 h) of 54%.

For the compound `N#Cc1ncc2nc1OCCC=CCOc1cc(N)c(Cl)cc1NC(=O)N2`, for the setting “from C=CCCOc1nc(NC(=O)Nc2cc(Cl)c(N)cc2OCC=C)cnc1C#N, 15-membered ring, Grubbs II (10 mol%), DMSO workup, CH2Cl2, 1.96 mM, 25.0 °C, 16.0 h”, the ring closure, isolated yield was found to be 77%.

Turning to `N#Cc1ncc2nc1OCCC=CCOc1c(F)cc(Cl)cc1NC(=O)N2`, the ring closure, isolated yield (from C=CCCOc1nc(NC(=O)Nc2cc(Br)cc(F)c2OCC=C)cnc1C#N, 15-membered ring, Grubbs II (10 mol%), CH2Cl2, 1.47 mM, 25.0 °C, 6.0 h) came out at 64%.

Consider `O=C1Nc2cncc(n2)OCCC=CCOc2ccc(Cl)cc2N1`, for which, under “from C=CCCOc1cncc(NC(=O)Nc2cc(Cl)ccc2OCC=C)n1, 15-membered ring, Grubbs II (15 mol%), CH2Cl2, 2.4 mM, 50.0 °C, 16.0 h”, the ring closure, isolated yield turned out to be 40%.

Turning to `C[Si](C)(C)CCOCOc1cc2c(cc1Cl)NC(=O)Nc1cnc(C#N)c(n1)OCCC=CCO2`, for the setting “from C=CCCOc1nc(NC(=O)Nc2cc(Cl)c(OCOCC[Si](C)(C)C)cc2OCC=C)cnc1C#N, 15-membered ring, Grubbs II (10 mol%), DMSO workup, CH2Cl2, 1.5 mM, 25.0 °C, 16.0 h”, the ring closure, isolated yield was 92%.
